Values joined by “and” are separate entries in the source; they are usually repeats but may differ in a detail not shown here. Identical values can stand only once.
Experiments:
[1] = In vivo pharmacokinetics in male C57BL/6 mice; parameters: species or system mouse; conditions: for AUC(0-t): read-out: AUC0-tlast; for half-life: read-out: Apparent t1/2 (converted); for MRT inf: read-out: MRT0-inf
Procedure: (§1) Male C57BL/6 mice (25-30 g) and male Sprague-Dawley rats (250-325 g) from Charles River Labs were acclimatized for a minimum of 5 days prior to dosing. Body weights were recorded on the day of dosing.
(§2) Animals dosed p.o. were deprived of food overnight and fed ˜2 h following dosing.
(§3) Formulations were administered intravenously (i.v.) via the tail vein or orally (p.o.) by gavage with disposable feeding needles.
(§4) Serial blood samples were collected via tail snip. Terminal blood samples were collected under isoflurane anesthesia by cardiac puncture.
(§5) All blood samples were transferred into K2EDTA tubes on wet ice and centrifuged within 5 min (3200×g for 5 min at 4° C.) to obtain plasma. Plasma was stored at −80° C. until analysis.
(§6) Mouse or rat plasma, as applicable.
(§7) AB Sciex QTRAP 4000 or 6500 MS/MS system equipped with an LC system with a binary pump, a solvent degasser, a thermostated column compartment and a multiplate autosampler. i. Analysis software: Phoenix® WinNonlin® 8.2 (Pharsight, Certara, Mountainview, Calif.) ii. Analysis methods: non-compartmental analysis, linear up/log down trapezoidal rule iii. PK parameters: C0, t1/2, AUC0-tlast, AUC0-∞, CL, VSS, MRT, tmax(po), Cmax(po), F, as appropriate

[2] = In vivo pharmacokinetics in male Sprague-Dawley rats; parameters: species or system rat; conditions: for AUC(0-t): read-out: AUC0-tlast; for MRT inf: read-out: MRT0-inf; for half-life: read-out: Apparent t1/2 (converted)
Procedure: as §1, §2, §3, §4, §5, §6, §7

C57BL/6J mice = test: Mouse head twitch response (HTR); type: in vivo
Procedure: Data is expressed as mean±SEM. The induction of head twitches elicited by 5-HT2A receptor agonists is believed to represent a behavioural proxy of their psychedelic effects.
The effect of different doses of exemplary compounds of Formula I were evaluated on head-twitch response (HTR) as a behavior-based model of psychedelic activity.
Male, C57BL/6J mice (body weight range 20-30 g) were dosed with the appropriate dose of test article, and following a 1-minute pre-treatment time, placed in individual observation chambers. Animals were visually assessed for the incidence head twitches continuously over a 1 hr period. Head twitches were defined as a rapid jerk of the head which was not elicited by an external tactile stimulus (Corne and Pickering, Psychopharmacologia, 1967, 11(1): 65-78). Each head twitch was individually counted by a trained observer, and the data expressed as the mean+SEM of 6-10 mice per group. Mice were used in a single experiment only.

[3] = mouse, plasma, iv, i.v. 1 mg/kg
[4] = mouse, plasma, po, p.o. 10 mg/kg
[5] = p.o. 3.0 mg/kg per title (dose row prints 10)
[6] = rat, plasma, iv, i.v. 0.3 mg/kg
[7] = rat, plasma, po, p.o. 3.0 mg/kg per title (dose row prints 10)
[8] = rat, plasma, sc, s.c. 0.3 mg/kg

[2H]C([2H])([2H])N(C([2H])([2H])[2H])C([2H])([2H])C([2H])([2H])c1c[nH]c2cccc(O)c12 [Compound I-45, 3-(2-(bis(methyl-d3)amino)ethyl-1,1,2,2-d4)-1H-indol-4-ol]
AUC0-inf/Dose ([1]; i.v. 1 mg/kg): 181 ± 30.8 kg·ng·h/mL/mg | AUC(0-inf) [1, 3]: 181 ± 30.8 ng·h/mL | clearance [1, 3]: 94 mL/min/kg | AUC(0-t) [1, 3]: 178 ± 32.2 ng·h/mL | half-life [1, 3]: 5.32 ± 2.99 h | MRT inf [1, 3]: 1.49 ± 0.536 h | Vd ([1]; mouse, plasma, iv, i.v. 1 mg/kg, read-out: Vss): 8.34 ± 3.15 L/kg | AUC(0-inf) [1, 4]: 795 ± 121 ng·h/mL | Cmax [1, 4]: 704 ± 128 ng/mL | bioavailability [1, 4]: 44 ± 6.7% | AUC(0-t) [1, 4]: 792 ± 120 ng·h/mL | half-life [1, 4]: 4.52 ± 0.481 h | MRT inf [1, 4]: 2 ± 0.227 h | AUC0-inf/Dose ([1]; p.o. 10 mg/kg): 79.5 ± 12.1 kg·ng·h/mL/mg | Cmax/Dose ([1]; p.o. 10 mg/kg): 70.4 ± 12.8 kg·ng/mL/mg | AUC0-inf/Dose ([2]; i.v. 0.3 mg/kg): 181 ± 30.8 kg·ng·h/mL/mg | AUC(0-inf) ([2]; i.v. 0.3 mg/kg): 117 ± 11.5 ng·h/mL | Apparent t1/2 ([2]; i.v. 0.3 mg/kg): 34.6 ± 3.17 h | AUC0-inf/Dose [2, 5]: 181 ± 14.6 kg·ng·h/mL/mg | Cmax/Dose [2, 5]: 79.2 ± 24.4 kg·ng/mL/mg | clearance [2, 6]: 143 mL/min/kg | AUC(0-t) [2, 6]: 35.2 ± 3.45 ng·h/mL | MRT inf [2, 6]: 1.49 ± 0.536 h | Cmax [2, 7]: 238 ± 73.3 ng/mL | Tmax [2, 7]: 0.333 ± 0.144 h | bioavailability [2, 7]: 155 ± 12.4% | AUC(0-inf) ([2]; rat, plasma, po, p.o. 3.0 mg/kg per title (dose row prints 10), read-out: AUC0-inf): 543 ± 43.7 ng·h/mL | AUC(0-t) [2, 7]: 534 ± 38.7 ng·h/mL | half-life [2, 7]: 2.61 ± 0.795 h | MRT inf [2, 7]: 2.77 ± 0.486 h | Cmax [2, 8]: 30.2 ± 12.2 ng/mL | Tmax [2, 8]: 0.278 ± 0.21 h | bioavailability [2, 8]: 125 ± 30.4% | AUC(0-inf) ([2]; rat, plasma, sc, s.c. 0.3 mg/kg, read-out: AUC0-inf): 35.9 ± 8.71 ng·h/mL | AUC(0-t) [2, 8]: 32 ± 9.2 ng·h/mL | half-life [2, 8]: 0.647 ± 0.212 h | MRT inf [2, 8]: 0.991 ± 0.228 h | AUC0-inf/Dose ([2]; s.c. 0.3 mg/kg): 120 ± 29.0 kg·ng·h/mL/mg | Cmax/Dose ([2]; s.c. 0.3 mg/kg): 101 ± 40.7 kg·ng/mL/mg | Head Twitch 10 mins, individual animal (C57BL/6J mice; 0.03 mg/kg SC, animals C1-C6): 0 (2×) and 1 and 3 and 2 (2×) | Head Twitch 20 mins, individual animal (C57BL/6J mice; 0.03 mg/kg SC, animals C1-C6): 0 (5×) and 1 | Head Twitch 30 mins, individual animal (C57BL/6J mice; 0.03 mg/kg SC, animals C1-C6): 0 | Head Twitch 40 mins, individual animal (C57BL/6J mice; 0.03 mg/kg SC, animals C1-C6): 0 | Head Twitch 50 mins, individual animal (C57BL/6J mice; 0.03 mg/kg SC, animals C1-C6): 0 (5×) and 1 | Head Twitch 60 mins, individual animal (C57BL/6J mice; 0.03 mg/kg SC, animals C1-C6): 0 | Head Twitch Total, individual animal (C57BL/6J mice; 0.03 mg/kg SC, animals C1-C6, over 1 h): 0 and 1 (2×) and 4 and 2 (2×) | Head Twitch 10 mins, AVG (C57BL/6J mice; 0.03 mg/kg SC, group mean): 1.3 | Head Twitch 20 mins, AVG (C57BL/6J mice; 0.03 mg/kg SC, group mean): 0.2 | Head Twitch 30 mins, AVG (C57BL/6J mice; 0.03 mg/kg SC, group mean): 0.0 | Head Twitch 40 mins, AVG (C57BL/6J mice; 0.03 mg/kg SC, group mean): 0.0 | Head Twitch 50 mins, AVG (C57BL/6J mice; 0.03 mg/kg SC, group mean): 0.2 | Head Twitch 60 mins, AVG (C57BL/6J mice; 0.03 mg/kg SC, group mean): 0.0 | Head Twitch Total, AVG (C57BL/6J mice; 0.03 mg/kg SC, group mean, over 1 h): 1.7 | Head Twitch 10 mins, individual animal (C57BL/6J mice; 0.1 mg/kg SC, animals P1-P10): 3 and 6 and 0 (3×) and 1 (3×) and 2 (2×) | Head Twitch 20 mins, individual animal (C57BL/6J mice; 0.1 mg/kg SC, animals P1-P10): 1 (4×) and 0 (4×) and 2 (2×) | Head Twitch 30 mins, individual animal (C57BL/6J mice; 0.1 mg/kg SC, animals P1-P10): 0 (6×) and 1 (4×) | Head Twitch 40 mins, individual animal (C57BL/6J mice; 0.1 mg/kg SC, animals P1-P10): 1 (2×) and 0 (8×) | Head Twitch 50 mins, individual animal (C57BL/6J mice; 0.1 mg/kg SC, animals P1-P10): 0 (7×) and 2 and 1 (2×) | Head Twitch 60 mins, individual animal (C57BL/6J mice; 0.1 mg/kg SC, animals P1-P10): 0 | Head Twitch Total, individual animal (C57BL/6J mice; 0.1 mg/kg SC, animals P1-P10, over 1 h): 5 and 9 and 3 (3×) and 2 (3×) and 1 and 4 | Head Twitch 10 mins, AVG (C57BL/6J mice; 0.1 mg/kg SC, group mean): 1.6 | Head Twitch 20 mins, AVG (C57BL/6J mice; 0.1 mg/kg SC, group mean): 0.8
